Measured values: US9848599B2, “Co-crystals of 3-iodopropynyl butylcarbamate” (priority 2012, dated 2017)

Assay: Thermal stability compared with IPBC
Type: physicochemical

Compound | thermal stability compared with IPBC
CCCCNC(=O)OCC#CI.CCCCNC(=O)OCC#CI.c1cc(-c2ccncc2)ccn1 [Co-Crystal 2, Co-Crystal Containing 3-iodopropynyl butylcarbamate and 4,4′-bipyridine in a 2:1 Molar Ratio] | higher thermal stability
Co-Crystal Containing 3-iodopropynyl butylcarbamate and N,N′-bis(4-pyridylcarbonyl)-1,6-hexanediamine in a 2:1 Molar Ratio [Co-Crystal 5] | higher thermal stability
Co-crystal containing 3-iodopropynyl butylcarbamate and 4-[2-(4-pyridinyl)ethyl]pyridine in a 2:1 Molar Ratio [Co-Crystal 1] | higher thermal stability
